Reference: patent US20100286038A1, “FORMULATION CONTAINING CYCLIN-DEPENDENT KINASE INHIBITING COMPOUND AND METHOD OF TREATING TUMORS USING THE SAME” (priority 2007, published 2010)
Where two headings read alike, the source gives them in different places.

What was measured:
[1] = tested on: various human tumor cell lines; details: read-out: Mean In-Cell IC50, 24 hours exposure
Protocol: The level of activation of apoptosis was also assessed by determining the levels of activated caspase in each cell line. […] The cells were evaluated fluorometrically for levels of activated caspase six hours post washout. Samples of each cell line were also subjected to SDS-PAGE and subsequently immunoblotted for p85 PARP caspase cleavage product.

tumor [2] = details: various dosages, 2 hour or 8 hour IV infusion, 21-day dosing cycle
YES = target: T1, YES (Homo sapiens, UniProt P07947); test: Upstate kinase Profiler counter-screening; type: biochemical; details: at 1 μM
T1 construct: purchased Upstate

cSRC = target: T2, cSRC (Homo sapiens, UniProt P12931); test: Upstate kinase Profiler counter-screening; type: biochemical
T2 construct: purchased Upstate
T2 sequence (P12931 whole entry, species assumed): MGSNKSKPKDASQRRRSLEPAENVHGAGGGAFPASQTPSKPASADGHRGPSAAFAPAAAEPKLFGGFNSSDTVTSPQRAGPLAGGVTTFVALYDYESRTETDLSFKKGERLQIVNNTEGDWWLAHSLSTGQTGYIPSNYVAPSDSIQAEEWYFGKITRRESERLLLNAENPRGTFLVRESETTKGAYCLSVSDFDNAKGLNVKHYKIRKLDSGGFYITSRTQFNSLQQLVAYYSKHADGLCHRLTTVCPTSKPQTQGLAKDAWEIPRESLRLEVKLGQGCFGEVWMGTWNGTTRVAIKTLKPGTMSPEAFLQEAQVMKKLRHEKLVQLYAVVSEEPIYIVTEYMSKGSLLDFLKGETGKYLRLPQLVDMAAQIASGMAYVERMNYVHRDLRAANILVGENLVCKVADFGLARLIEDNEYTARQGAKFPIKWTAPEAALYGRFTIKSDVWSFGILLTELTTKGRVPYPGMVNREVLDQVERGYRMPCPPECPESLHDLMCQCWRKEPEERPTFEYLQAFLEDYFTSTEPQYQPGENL

CDK7/cyclinH/MAT1 = target: T3, CDK7/cyclinH/MAT1 (Homo sapiens, UniProt P50613); test: Upstate kinase Profiler counter-screening; type: biochemical
T3 construct: purchased Upstate
T3 sequence (P50613 whole entry, species assumed): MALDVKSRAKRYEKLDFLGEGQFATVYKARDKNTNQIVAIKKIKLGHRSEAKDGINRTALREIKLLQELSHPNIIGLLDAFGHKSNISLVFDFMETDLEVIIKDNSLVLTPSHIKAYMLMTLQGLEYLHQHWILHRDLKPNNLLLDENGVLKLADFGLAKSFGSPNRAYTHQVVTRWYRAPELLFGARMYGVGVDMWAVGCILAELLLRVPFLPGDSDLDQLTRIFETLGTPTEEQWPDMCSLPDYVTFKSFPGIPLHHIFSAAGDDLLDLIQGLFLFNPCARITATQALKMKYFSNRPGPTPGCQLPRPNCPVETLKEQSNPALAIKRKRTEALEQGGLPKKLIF
T3 sequence (P51946 whole entry partner, species assumed): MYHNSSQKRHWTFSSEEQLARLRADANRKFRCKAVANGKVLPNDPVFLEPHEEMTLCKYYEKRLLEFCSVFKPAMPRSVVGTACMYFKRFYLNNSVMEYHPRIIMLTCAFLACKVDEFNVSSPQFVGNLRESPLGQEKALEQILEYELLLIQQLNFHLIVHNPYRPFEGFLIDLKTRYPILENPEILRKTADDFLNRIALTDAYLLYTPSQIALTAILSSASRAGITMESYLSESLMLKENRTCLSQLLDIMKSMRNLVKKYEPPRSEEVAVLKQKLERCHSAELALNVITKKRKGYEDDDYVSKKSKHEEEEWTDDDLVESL
T3 sequence (P51948 whole entry partner, species assumed): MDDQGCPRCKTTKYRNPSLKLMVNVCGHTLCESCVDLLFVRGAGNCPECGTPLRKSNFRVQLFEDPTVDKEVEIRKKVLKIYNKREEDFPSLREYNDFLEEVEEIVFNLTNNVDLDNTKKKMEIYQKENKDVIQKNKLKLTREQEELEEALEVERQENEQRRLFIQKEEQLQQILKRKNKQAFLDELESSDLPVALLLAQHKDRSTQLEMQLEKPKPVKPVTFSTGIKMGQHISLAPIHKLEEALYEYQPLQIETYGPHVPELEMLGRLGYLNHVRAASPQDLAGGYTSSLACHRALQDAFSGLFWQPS

[3] = tested on: lymphocyte proliferation (BrdU incorporation)
Protocol: The samples were collected in tubes containing heparin and shipped to a central laboratory for evaluation. Whole blood from each sample was diluted 1:5 in complete RPMI media and 200 microliter aliquots were added to wells of a 96-well plate. Samples from each time point were either stimulated with PHA (0.01 mg/ml final concentration), or not stimulated. […] Samples were stained with FITC conjugated anti-CD45 antibody. RBC's were lysed and the remaining cells were fixed, permeabilized and treated with DNase. The samples were then incubated with an anti-BrdU antibody. Washed cells were re-suspended and the CD45 and BrdU-positive and −negative populations were detected by FACS. FIGS. 10, 12A, and 12B show the percent of BrdU incorporation for samples taken for various doses.

xenograft models = details: plasma trough concentrations of less than 25 nM for less than two hours
A2780 cells = details: 2 hours exposure to 0.1 mM
Protocol: Following washout, lysates were prepared from the cells to assess the duration of the effects of exposure.

Lyn = target: T4, Lyn (Homo sapiens, UniProt P07948); test: Upstate kinase Profiler counter-screening; type: biochemical
T4 construct: purchased Upstate
T4 sequence (P07948 whole entry, species assumed): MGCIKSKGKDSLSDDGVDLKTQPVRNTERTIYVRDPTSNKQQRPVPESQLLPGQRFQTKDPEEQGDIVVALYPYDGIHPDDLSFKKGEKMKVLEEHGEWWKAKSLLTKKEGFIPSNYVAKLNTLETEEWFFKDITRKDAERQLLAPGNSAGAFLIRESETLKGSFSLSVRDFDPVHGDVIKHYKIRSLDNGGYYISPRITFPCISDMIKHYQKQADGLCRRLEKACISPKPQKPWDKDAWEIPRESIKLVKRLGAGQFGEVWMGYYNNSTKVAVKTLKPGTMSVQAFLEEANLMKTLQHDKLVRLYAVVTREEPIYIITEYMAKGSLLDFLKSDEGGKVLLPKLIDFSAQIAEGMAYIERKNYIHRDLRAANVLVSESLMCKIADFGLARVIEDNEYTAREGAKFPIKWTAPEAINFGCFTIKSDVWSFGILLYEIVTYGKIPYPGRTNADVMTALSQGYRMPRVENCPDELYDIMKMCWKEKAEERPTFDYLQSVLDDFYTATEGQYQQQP

H82 (SCLC) = test: xenograft tumor model
Fes = target: T5, Fes (Homo sapiens, UniProt P07332); test: Upstate kinase Profiler counter-screening; type: biochemical
T5 construct: purchased Upstate
T5 sequence (P07332 whole entry, species assumed): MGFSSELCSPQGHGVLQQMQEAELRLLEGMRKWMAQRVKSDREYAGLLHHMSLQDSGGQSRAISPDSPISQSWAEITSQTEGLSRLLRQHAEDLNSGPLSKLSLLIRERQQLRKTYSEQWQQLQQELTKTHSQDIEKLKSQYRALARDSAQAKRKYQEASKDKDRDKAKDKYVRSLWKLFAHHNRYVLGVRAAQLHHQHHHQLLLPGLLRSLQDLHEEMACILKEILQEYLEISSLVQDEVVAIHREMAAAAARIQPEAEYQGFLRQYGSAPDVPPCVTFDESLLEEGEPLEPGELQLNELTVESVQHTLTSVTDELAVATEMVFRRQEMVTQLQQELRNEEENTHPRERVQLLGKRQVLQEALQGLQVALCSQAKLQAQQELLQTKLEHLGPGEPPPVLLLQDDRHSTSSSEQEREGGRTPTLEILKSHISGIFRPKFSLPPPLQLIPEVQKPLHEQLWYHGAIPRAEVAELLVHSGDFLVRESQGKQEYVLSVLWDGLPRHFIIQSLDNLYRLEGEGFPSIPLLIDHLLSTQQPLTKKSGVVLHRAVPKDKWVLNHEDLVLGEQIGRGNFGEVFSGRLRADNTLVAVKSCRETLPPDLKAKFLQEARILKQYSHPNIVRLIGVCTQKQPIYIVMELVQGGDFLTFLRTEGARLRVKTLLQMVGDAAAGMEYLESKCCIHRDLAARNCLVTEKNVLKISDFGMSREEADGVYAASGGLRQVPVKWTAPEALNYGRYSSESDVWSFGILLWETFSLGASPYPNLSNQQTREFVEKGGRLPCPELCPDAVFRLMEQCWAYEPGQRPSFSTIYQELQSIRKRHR

phospho-Rb Ser 807/811 = details: single dose IP 40 mg/kg; samples post dose vs T0
Source text: Skin samples were harvested at various intervals following dosing and compared with biopsies harvested prior to dosing (T0). Biopsied samples were fixed overnight in 10% formalin.

CDK6/cyclinD3 = target: T6, CDK6/cyclinD3 (Homo sapiens, UniProt Q00534); test: Upstate kinase Profiler counter-screening; type: biochemical; details: at 1 μM
T6 construct: purchased Upstate

PKCβII = target: T7, PKCβII (Homo sapiens, UniProt P05771); test: Upstate kinase Profiler counter-screening; type: biochemical
T7 construct: purchased Upstate
T7 sequence (P05771 1-673 isoform P05771-2): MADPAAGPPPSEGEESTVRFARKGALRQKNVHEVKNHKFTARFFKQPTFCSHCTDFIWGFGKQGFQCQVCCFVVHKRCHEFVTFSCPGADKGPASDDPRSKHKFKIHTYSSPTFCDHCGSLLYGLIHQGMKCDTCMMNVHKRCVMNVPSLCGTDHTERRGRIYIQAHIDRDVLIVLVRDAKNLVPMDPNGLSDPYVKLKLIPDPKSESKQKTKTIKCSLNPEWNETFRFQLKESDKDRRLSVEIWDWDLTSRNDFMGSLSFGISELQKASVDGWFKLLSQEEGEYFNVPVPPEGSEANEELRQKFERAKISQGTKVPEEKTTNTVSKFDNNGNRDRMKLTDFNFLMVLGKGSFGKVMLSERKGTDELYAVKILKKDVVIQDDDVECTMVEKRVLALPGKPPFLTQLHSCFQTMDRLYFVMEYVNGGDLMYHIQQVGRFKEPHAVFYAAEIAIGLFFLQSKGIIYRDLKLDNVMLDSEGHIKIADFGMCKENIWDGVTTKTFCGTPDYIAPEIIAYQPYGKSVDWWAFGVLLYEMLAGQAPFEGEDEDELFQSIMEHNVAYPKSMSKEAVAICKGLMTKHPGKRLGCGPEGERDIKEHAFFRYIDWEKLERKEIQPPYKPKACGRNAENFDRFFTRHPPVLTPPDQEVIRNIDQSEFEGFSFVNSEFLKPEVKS

Rsk2 = target: T8, Rsk2 (Homo sapiens, UniProt P51812); test: Upstate kinase Profiler counter-screening; type: biochemical
T8 construct: purchased Upstate
T8 sequence (P51812 whole entry, species assumed): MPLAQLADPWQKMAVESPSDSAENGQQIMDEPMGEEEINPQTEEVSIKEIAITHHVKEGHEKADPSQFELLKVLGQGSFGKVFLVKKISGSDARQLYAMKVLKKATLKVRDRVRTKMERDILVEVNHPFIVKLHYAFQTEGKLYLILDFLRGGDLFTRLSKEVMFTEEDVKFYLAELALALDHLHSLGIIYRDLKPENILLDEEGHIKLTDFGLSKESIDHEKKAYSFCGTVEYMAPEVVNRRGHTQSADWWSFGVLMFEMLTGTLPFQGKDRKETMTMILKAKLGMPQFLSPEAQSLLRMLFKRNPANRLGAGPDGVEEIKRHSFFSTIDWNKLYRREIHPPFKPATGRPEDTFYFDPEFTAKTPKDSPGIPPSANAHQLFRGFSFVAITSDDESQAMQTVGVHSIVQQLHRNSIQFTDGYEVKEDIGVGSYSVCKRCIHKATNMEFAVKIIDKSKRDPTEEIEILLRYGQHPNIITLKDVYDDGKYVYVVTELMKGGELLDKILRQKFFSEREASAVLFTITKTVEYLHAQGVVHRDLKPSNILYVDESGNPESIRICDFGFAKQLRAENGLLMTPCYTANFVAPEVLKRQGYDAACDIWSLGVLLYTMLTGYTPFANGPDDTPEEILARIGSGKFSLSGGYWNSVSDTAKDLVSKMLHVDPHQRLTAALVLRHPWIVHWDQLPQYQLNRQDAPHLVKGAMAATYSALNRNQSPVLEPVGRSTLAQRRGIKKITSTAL

Blk = Blk (Mus musculus, UniProt P16277)
Blk, sequence (P16277 2-499 limits assumed): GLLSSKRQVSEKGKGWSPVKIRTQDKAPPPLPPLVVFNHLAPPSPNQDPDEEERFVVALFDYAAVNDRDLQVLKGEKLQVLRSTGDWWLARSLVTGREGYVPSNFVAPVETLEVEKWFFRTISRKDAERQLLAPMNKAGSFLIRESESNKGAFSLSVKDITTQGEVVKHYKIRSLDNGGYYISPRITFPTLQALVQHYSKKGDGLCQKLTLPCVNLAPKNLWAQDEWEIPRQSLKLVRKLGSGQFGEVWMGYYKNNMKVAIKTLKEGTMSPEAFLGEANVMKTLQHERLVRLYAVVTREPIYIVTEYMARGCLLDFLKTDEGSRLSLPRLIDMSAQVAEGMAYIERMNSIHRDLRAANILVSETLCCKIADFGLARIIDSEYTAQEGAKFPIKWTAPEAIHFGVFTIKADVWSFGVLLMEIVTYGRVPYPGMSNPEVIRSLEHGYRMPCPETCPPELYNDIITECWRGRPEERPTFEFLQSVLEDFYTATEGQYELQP

tumor [4] = details: for Status: 4-week schedule
Source text: Each 28-day dosing cycle comprising once weekly administration for three weeks with a week off.

CCc1cnn2c(NCc3ccc[n+]([O-])c3)cc(N3CCCC[C@H]3CCO)nc12 [Formula II] gave an IC50 ([1]; Bladder) of 10 nM, an IC50 ([1]; Breast) of 8 nM and an IC50 ([1]; Colon) of 17 nM. It also gave an IC50 ([1]; Leukemia) of 6 nM, an IC50 ([1]; Liver) of 8 nM and an IC50 ([1]; Lymphoma (NHL)) of 7 nM. It also gave an IC50 ([1]; Mantle Cell lymphoma) of 7 nM, an IC50 ([1]; Melanoma) of 9 nM and an IC50 ([1]; NSCLC) of 14 nM. For the same molecule, the IC50 ([1]; Ovarian) was 14 nM, the IC50 ([1]; Pancreatic) was 15 nM and the IC50 ([1]; Prostate) was 12 nM. The IC50 ([1]; SCLC) was 6 nM, the “responses by RECIST criteria in the population” value (tumor [2]) was “no complete or partial responses” and the “effect on tumor volume” value (A549 NSCLC xenografts; 5 dosing schedules (20, 29, 52, 3x17, 87 mg/kg), total 260 mg/kg) was “regression in tumor volume and mass”. The “% inhibition observed at dosage of 5 mg/kg Formula II” value (“% inhibition observed at dosage” below) (A549 NSCLC xenografts; first Formula II column) was 73%, the “% inhibition observed at dosage” value (A549 NSCLC xenografts; second Formula II column) was 160 (regression) % and the “% remaining activity” value (YES) was 92%. For the same molecule, the “% remaining activity” value (cSRC; at 1 μM) was 117%, the “% remaining activity” value (cSRC; at 10 μM) was 111% and the “% remaining activity” value (CDK7/cyclinH/MAT1; at 1 μM) was 7%. The “% remaining activity” value (CDK7/cyclinH/MAT1; at 10 μM) was 4%, the “% BrdU incorporated at 8 hrs post-infusion” value (“% BrdU incorporated” below) ([3]; Patient A, 1.85 mg/M2, Pre-Dose 28) was 65% and the “% BrdU incorporated” value ([3]; Patient B, 3.7 mg/M2, Pre-Dose 10) was 13%. The “% BrdU incorporated” value ([3]; Patient C, 7.4 mg/M2, Pre-Dose 51) was 11%, the “% BrdU incorporated” value ([3]; Patient F, 50 mg/M2, Pre-Dose 33) was 1% and the “% BrdU incorporated” value ([3]; Patient G, 58 mg/M2, Pre-Dose 23) was 0.7%. For the same molecule, the “% BrdU incorporated” value ([3]; Patient H, 41.4 mg/M2, Pre-Dose 41) was 45%, the “effect on xenograft tumors” value (xenograft models) was “tumor growth inhibition or regression” and the “period of suppression of RB phosphorylation and caspase activation after the washout” value (A2780 cells) was “exceeding 6 hours”. For the same molecule, the “% remaining activity” value (Lyn; at 1 μM) was 108%, the “% remaining activity” value (Lyn; at 10 μM) was 110% and the “% inhibition observed at dosage” value (H82 (SCLC); first Formula II column) was 56%. The “% inhibition observed at dosage” value (H82 (SCLC); second Formula II column) was 65%, the “% remaining activity” value (Fes; at 1 μM) was 87% and the “% remaining activity” value (Fes; at 10 μM) was 91%. For the same molecule, the “phospho-Rb in proliferating epithelial cells of basal epithelium and hair follicles” value (phospho-Rb Ser 807/811) was “rapid and sustained suppression of phospho-Rb”, the “% remaining activity” value (CDK6/cyclinD3) was 12% and the “% remaining activity” value (PKCβII; at 1 μM) was 110%. For the same molecule, the “% remaining activity” value (PKCβII; at 10 μM) was 113%, the “% remaining activity” value (Rsk2; at 1 μM) was 104% and the “% remaining activity” value (Rsk2; at 10 μM) was 76%. The “% remaining activity” value (Blk; at 1 μM) was 69%, the “% remaining activity” value (Blk; at 10 μM) was 100% and the Status (tumor [4]; adenoidcystic carcinoma patient, 7.11 mg/m^2, 5 cycles) was “disease progression”. The Status (tumor [4]; melanoma patient, 3.63 mg/m^2, 9 cycles) was “disease progression”, the Status (tumor [4]; prostate patient, 3.63 mg/m^2, 4 cycles) was “disease progression” and the Status (tumor [4]; pseudomyxoma patient, 2.59 mg/m^2, 9 cycles) was “off study with stable disease”. For the same molecule, the “tumor markers (FIG. 11, incl. CA125)” value (tumor [4]; pseudomyxoma peritonei patient, after 6 cycles of 28 day treatment at 2.59 mg/m^2) was “falling tumor markers”, the “responses by RECIST criteria in the population” value (tumor [4]; various dosages, 2 hour IV infusion, 28-day dosing cycle) was “No complete or partial responses” and the “body-weight loss over the course of the experiment” value (maximum dosage level (48 mg/kg IP daily for 10 days)) was “about 5%”. The MTD (once per day IP for 7 days, dose inducing 20% loss of body weight) was 60 mg/kg.
